Key:
[1] = tested on: serum at 1:200 dilution; assay: Acetylamantadine competitive ELISA using serum at 1:200 dilution (FIG. 5); type: binding, rabbit; settings: serum 1:200; coating 2 ug/ml streptavidin and 6 ng/ml biotinylated acetylamantadine; tested 0.025 to 250 ng/ml
Experimental: It will accordingly be understood by a person skilled in the art that the immunological assay disclosed herein may be used to detect or quantify acetylamantadine in a patient who has taken a small dose of amantadine. This is shown in FIG. 5 which illustrates the results of an acetylamandine competitive ELISA with signal reading against acetylamantadine competitive concentration. The ELISA plate coating was 2 ug/ml streptavidin and 6 ng/ml biotinylated acetylamantadine. The competition ELISA using serum at 1:200 dilution against acetylamantadine ranging from 0.025 ng/ml to 250 ng/ml. Complete inhibition inhibition occurs near 100 ng/ml of soluble acetylamantadine. The detection limit (sensitivity) is near 0.5 ng/ml to 1.0 ng/ml The quantification of acetylamantadine can be used to quantify SSAT activity and elevated SSAT activity is an indication of diseases including, but not limited, to inflammations and cancers.

[2] = molecular target: affinity-purified antibodies against acetylamantadine; assay: Competitive ELISA with affinity-purified antibodies against acetylamantadine, not absorbed with amantadine; type: binding, rabbit; settings: FIG. 3
[3] = molecular target: serum of a rabbit immunized repeatedly against acetylamantadine; assay: Competitive ELISA with serum of a rabbit immunized repeatedly against acetylamantadine; type: binding; settings: dilution of serum; FIG. 4
Experimental: A New Zealand white rabbit was immunized intramuscularly with 250 μg of the acetylamantadine-ovalbumin conjugate emulsified in complete Freund's adjuvant. The rabbit was boosted multiple times with acetylamantadine-ovalbumin conjugate, twice with 100 μg of acetylamantadine-conjugate keyhole-limpet hemocyanin and once with 4 pg of avidin coupled with an excess of biotinylated acetylamantadine with alum as an adjuvant. The rabbit was boosted with 100 μg of the acetylamantadine-ovalbumin conjugate 14 days before the rabbit was euthanized and bled out.
The rabbit blood was allowed to clot and the sera were collected. […]
Enzyme-linked immunosorbent assay (ELISA) plates were coated with the biotin-binding protein streptavidin at 2 μg/mL and blocked with skim milk. […] The soluble acetylamantadine or the amatidine was titrated in a separate 96-well plate and incubated for an hour with a small, previously determined concentration of anti-acetylamantadine affinity-purified antibodies absorbed with amantadine that gives a clear signal in the ELISA plates coated with acetylamantadine. […]
The ELISA was incubated for two hours and then the ELISA was developed by adding goat antibodies against rabbit IgG conjugated with alakine phosphatase. The substrate was added and the ELISA developed by standard methods and the optical densities were assayed by an ELISA reader and are shown in FIG. 1. […]

[4] = molecular target: anti-acetylamantadine affinity-purified antibodies absorbed with amantadine; assay: Competitive ELISA with affinity-purified antibodies against acetylamantadine absorbed with amantadine; type: binding, rabbit; settings: soluble competitor incubated one hour with antibodies; plates coated with streptavidin and biotinylated acetylamantadine 2 ng/mL; FIG. 2
Experimental: The affinity-purified antibodies against acetylamantadine were flowed over a column of cyanogen-bromide coupled agarose beads conjugated with amantadine and the peak of IgG was taken.
Enzyme-linked immunosorbent assay (ELISA) plates were coated with the biotin-binding protein streptavidin at 2 μg/mL and blocked with skim milk. The ELISA plates were then washed with phosphate-buffered saline with an automated washer. Biotinylated acetylamantadine at 2 ng/mL was added to the streptavidin-coated ELISA plates so that acetylamantadine was bound to the streptavidin. The ELISA plates were then washed to remove the free biotinylated acetylamantadine. The soluble acetylamantadine or the amatidine was titrated in a separate 96-well plate and incubated for an hour with a small, previously determined concentration of anti-acetylamantadine affinity-purified antibodies absorbed with amantadine that gives a clear signal in the ELISA plates coated with acetylamantadine. […]
The ELISA was incubated for two hours and then the ELISA was developed by adding goat antibodies against rabbit IgG conjugated with alakine phosphatase. The substrate was added and the ELISA developed by standard methods and the optical densities were assayed by an ELISA reader and are shown in FIG. 1. […] If one makes quadruplicate assays of samples of urine, one can accurately quantify acetylamantadine in the assay. […]

Compound: CC(=O)NC12CC3CC(CC(C3)C1)C2 [acetylamantadine]
- concentration at which complete inhibition occurs [1]: ~100 ng/mL
- concentration giving significant inhibition (50%) of the binding in the ELISA [2]: ~1.3 ng/mL
- concentration giving significant inhibition (50%) of the binding in the ELISA [3]: ~300 pg/mL
- concentration giving significant inhibition (50%) of the binding in the ELISA [4]: ~400 pg/mL

Compound: NC12CC3CC(CC(C3)C1)C2 [amantadine]
- concentration giving significant inhibition (50%) of the binding in the ELISA [2]: 100000 ng/mL
- concentration giving significant inhibition (50%) of the binding in the ELISA [3]: 1e+08 pg/mL
- concentration giving significant inhibition (50%) of the binding in the ELISA [4]: 4e+07 pg/mL

From patent US20160223527A1, “An Immunological Assay To Detect And Quantify Acetylamantadine” (BIOMARK TECHNOLOGIES INC, priority 2013, published 2016)
